The record followed here is patent US20260226064A1, “POLYCYCLIC COMPOUND FOR TREATING NEUROLOGICAL DISEASES AND TUMORS” (Shanghai Institute of Organic Chemistry, Chinese Academy of …, priority 2023, published 2026).

In general, Cmax refers to the highest concentration seen after dosing. As usually defined, the Tmax is the time at which the peak concentration occurs.

Read-outs that look alike come from different tables or passages of the source.

For data set [1], the system named is acetylated microtubule in HEK293T cells. Kind of data set: Microtubule-Stabilizing Activity Assay (acetylated microtubule immunoblot, HEK293T, colchicine challenge). It counts as cell-based. The note with it: 1 h pre-incubation, then colchicine 1 μM 3 h, relative to CNDR-51657 at 500 nM = 1.00; for Microtubule-Stabilizing Activity 50 nM: compound 50 nM; for Microtubule-Stabilizing Activity 500 nM: compound 500 nM. In outline:
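HEK293T cells pretreated with compound or DMSO 1 h at 37 °C, then challenged with 1 μM colchicine for 3 h. Lysates (RIPA plus 1 μM trichostatin A) immunoblotted for acetylated and α-tubulin, quantified by densitometry. Activity expressed relative to CNDR-51657 at 500 nM set as 1.00.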
On the technique in general: A western blot detects proteins with antibodies after separation by electrophoresis.

The nature of data set [2]: Mouse Oral Pharmacokinetic Study. It counts as in vivo. Conditions: male CD1 mice, oral gavage 10 mg/kg; for Kp at 4 h: brain/plasma, read-out: Cbrain/Cplasma; for AUC(0-t): read-out: AUC0-4h. As to the method:
Healthy male CD1 mice were used as experimental animals. The drug was administered by oral gavage at a dose of 10 mg/kg with a dosing volume of 10 mL/kg. Drug preparation: 10 mg of the compound was placed in 10 mL of 50% PEG400 or 20% HPb-cyclodextrin, ground and shaken to ensure uniform distribution of the compound in small particle size, followed by oral administration. Blood samples were collected at 30 min, 1 h, 2 h, and 4 h post-dose, and brain tissues were sampled at 4 h. EDTA dipotassium salt was added to the blood samples, and plasma was obtained after centrifugation. The supernatant was analyzed after dilution with 5 volumes of acetonitrile and centrifugation. The brain tissue homogenate was diluted with 3.5 volumes of acetonitrile, centrifuged, and the supernatant was collected for analysis. The samples were then analyzed by liquid chromatography-tandem mass spectrometry (LC-MS/MS): the instrument was AB Sciex 3500; the mobile phase consisted of 0.1% formic acid in water (A)/0.1% formic acid in acetonitrile (B), with gradient elution.

Setting [3] is: mouse, brain tissue at 4 h, read-out: Cbrain@4h.
Setting [4] is: mouse, plasma at 4 h, read-out: Cpasma@4h.

With `CN1C[C@@H]2[C@@H](/C=C/c3cc(F)c(-c4c(Cl)nc5ncnn5c4NCC(F)(F)F)c(F)c3)[C@@H]2C1` [Example 58], in data set [1], the “Microtubule-Stabilizing Activity 50 nM” value was 1.09. For the same compound, the “Microtubule-Stabilizing Activity 500 nM” value in data set [1] is reported as 1.63. In addition, in data set [2] (mouse, 4 h), the Kp at 4 h was determined as 3.58. The results for the concentration at 4 h in data set [2] (setting [3]) and in data set [2] (setting [4]) were 222 ng/mL and 62 ng/mL, respectively. Further, in data set [2] (mouse, plasma, 0-4 h), the AUC(0-t) is 368 ng·h/mL. Also, the Cmax in data set [2] (mouse, plasma, read-out: Cmax) was determined as 115 ng/mL. The Tmax in data set [2] (mouse, plasma, read-out: Tmax) amounted to 60 min.
For the compound `CC(C)[C@@H](C)Nc1c(-c2c(F)cc(F)cc2F)c(Cl)nc2ncnn12` [Intermediate 4, (R)-5-Chloro-N-(3-methylbutan-2-yl)-6-(2,4,6-trifluorophenyl)-[1,2,4]triazolo[1,5-a]pyrimidin-7-amine, reference compound], the “Microtubule-Stabilizing Activity 50 nM” value in data set [1] was 0.2-0.3. For the same compound, the “Microtubule-Stabilizing Activity 500 nM” value in data set [1] was 1.00. In data set [2] (mouse, 4 h), the Kp at 4 h worked out at 0. The concentration at 4 h was found to be 0 ng/mL in data set [2] (setting [3]) and 3 ng/mL in data set [2] (setting [4]). Also, in data set [2] (mouse, plasma, 0-4 h), the AUC(0-t) is 57 ng·h/mL. Besides, the Cmax in data set [2] (mouse, plasma, read-out: Cmax) was determined as 49 ng/mL. The Tmax in data set [2] (mouse, plasma, read-out: Tmax) was 30 min.
With `CNCCCOc1cc(F)c(-c2c(Cl)nc3ncnn3c2N[C@@H](C)C(F)(F)F)c(F)c1` [Cevipubulin, reference compound], in data set [1], the “Microtubule-Stabilizing Activity 50 nM” value is on record as 1.65 and the “Microtubule-Stabilizing Activity 500 nM” value amounted to 1.68. For the same compound, the Cbrain/Cplasma in data set [2] (4 h) turned out to be 0.10. For the same compound, the “Cbrain@4h” value in data set [2] (brain tissue at 4 h) came to 38 ng/mL. Besides, in data set [2] (plasma), the Cmax was found to be 660 ng/mL and the Tmax was 54 min. In data set [2] (plasma at 4 h), the “Cpasma@4h” value stood at 376 ng/mL. The AUC0-4h in data set [2] (plasma, 0-4 h) is 1826 ng·h/mL.
Take `C[C@H](Nc1c(-c2c(F)cc(OCC3[C@H]4CN(C)C[C@@H]34)cc2F)c(Cl)nc2ncnn12)C(F)(F)F` (stereo partly drawn) [Example 25, 5-Chloro-6-(2,6-difluoro-4-(((1R,5S,6r)-3-methyl-3-azabicyclo[3.1.0]hexan-6-yl)methoxy)phenyl)-N—((S)-1,1,1-trifluoropropan-2-yl)-[1,2,4]triazolo[1,5-a]pyrimidin-7-amine]: in data set [1], the “Microtubule-Stabilizing Activity 50 nM” value worked out at 0.96 and the “Microtubule-Stabilizing Activity 500 nM” value came to 1.31. In addition, the Kp at 4 h in data set [2] (mouse, 4 h) came out at 1.45. Further, in data set [2] (setting [3]), the concentration at 4 h stood at 198 ng/mL. In addition, the concentration at 4 h in data set [2] (setting [4]) is 137 ng/mL. Moreover, in data set [2] (mouse, plasma, 0-4 h), the AUC(0-t) stood at 939 ng·h/mL. Besides, the Cmax in data set [2] (mouse, plasma, read-out: Cmax) was determined as 399 ng/mL. For the same compound, the Tmax in data set [2] (mouse, plasma, read-out: Tmax) stood at 45 min.
For the compound `CC(C)[C@@H](C)Nc1c(-c2c(F)cc(C#C[C@@H]3[C@H]4CN(C)C[C@@H]34)cc2F)c(Cl)nc2ncnn12` [Example 55, 5-Chloro-6-(2,6-difluoro-4-(((1R,5S,6s)-3-methyl-3-azabicyclo[3.1.0]hexan-6-yl)ethynyl)phenyl)-N—((R)-3-methylbutan-2-yl)-[1,2,4]triazolo[1,5-a]pyrimidin-7-amine], in data set [1], the “Microtubule-Stabilizing Activity 50 nM” value is reported as 1.8 and the “Microtubule-Stabilizing Activity 500 nM” value is 1.62. Also, the Kp at 4 h in data set [2] (mouse, 4 h) amounted to 1.22. Besides, the concentration at 4 h in data set [2] (setting [3]) was determined as 375 ng/mL. In addition, the concentration at 4 h in data set [2] (setting [4]) is 306 ng/mL. Besides, the AUC(0-t) in data set [2] (mouse, plasma, 0-4 h) was found to be 1450 ng·h/mL. In data set [2] (mouse, plasma, read-out: Cmax), the Cmax was 496 ng/mL. The Tmax in data set [2] (mouse, plasma, read-out: Tmax) stood at 30 min.
Turning to `C[C@H](Nc1c(-c2c(F)cc(OCC3[C@H]4CNC[C@@H]34)cc2F)c(Cl)nc2ncnn12)C(F)(F)F` (stereo partly drawn) [Example 24, 6-(4-(((1R,5S,6r)-3-Azabicyclo[3.1.0]hex-6-yl)methoxy)-2,6-difluorophenyl)-5-chloro-N—((S)-1,1,1-trifluoropropan-2-yl)-[1,2,4]triazolo[1,5-a]pyrimidin-7-amine], in data set [1], the “Microtubule-Stabilizing Activity 50 nM” value was 0.86 and the “Microtubule-Stabilizing Activity 500 nM” value was determined as 1.63. For the same compound, the Kp at 4 h in data set [2] (mouse, 4 h) is 0.17. Also, in data set [2] (setting [3]), the concentration at 4 h came to 147 ng/mL. Besides, the concentration at 4 h in data set [2] (setting [4]) came to 874 ng/mL. Further, the AUC(0-t) in data set [2] (mouse, plasma, 0-4 h) was determined as 5960 ng·h/mL. The Cmax in data set [2] (mouse, plasma, read-out: Cmax) was found to be 2640 ng/mL. The Tmax in data set [2] (mouse, plasma, read-out: Tmax) turned out to be 45 min.
`Cc1nc2ncnn2c(N[C@H](C)C(C)C)c1-c1c(F)cc(OCC2[C@H]3CN(C)C[C@@H]23)cc1F` (stereo partly drawn) [Example 57, 6-(2,6-Difluoro-4-(((1R,5S,6r)-3-methyl-3-azabicyclo[3.1.0]hexan-6-yl)methoxy)phenyl)-5-methyl-N—((R)-3-methylbutan-2-yl)-[1,2,4]triazolo[1,5-a]pyrimidin-7-amine]: the “Microtubule-Stabilizing Activity 500 nM” value in data set [1] came to 1.90. For the same compound, in data set [2] (mouse, 4 h), the Kp at 4 h was found to be 0.96. In addition, the concentration at 4 h came to 102 ng/mL in data set [2] (setting [3]) and 106 ng/mL in data set [2] (setting [4]). The AUC(0-t) in data set [2] (mouse, plasma, 0-4 h) was 525 ng·h/mL. In addition, the maximum concentration (Cmax) in data set [2] (mouse, plasma, read-out: Cmax) is 161 ng/mL. Besides, the time of peak concentration (Tmax) in data set [2] (mouse, plasma, read-out: Tmax) came out at 30 min.
For the compound `CNC1CC2(C1)CC(Oc1cc(F)c(-c3c(Cl)nc4ncnn4c3N[C@@H](C)C(F)(F)F)c(F)c1)C2` (stereo partly drawn) [Example 11, (S)-5-Chloro-6-(2,6-difluoro-4-((6-(methylamino)spiro[3.3]heptan-2-yl)oxy)phenyl)-N-(1,1,1-trifluoropropan-2-yl)-[1,2,4]triazolo[1,5-a]pyrimidin-7-amine], in data set [1], the “Microtubule-Stabilizing Activity 50 nM” value stood at 0.60 and the “Microtubule-Stabilizing Activity 500 nM” value is 1.45. The Kp at 4 h in data set [2] (mouse, 4 h) stood at 0.11. Further, the concentration at 4 h in data set [2] (setting [3]) is 252 ng/mL. Moreover, in data set [2] (setting [4]), the concentration at 4 h is 2200 ng/mL. Also, the AUC(0-t) in data set [2] (mouse, plasma, 0-4 h) was 11200 ng·h/mL. In data set [2] (mouse, plasma, read-out: Cmax), the highest concentration (Cmax) was 4140 ng/mL. Besides, in data set [2] (mouse, plasma, read-out: Tmax), the Tmax was 45 min.
Consider `Cc1nc2ncnn2c(NCC(F)(F)F)c1-c1c(F)cc(OC[C@@H]2[C@H]3CN(C)C[C@@H]23)cc1F` [Example 60], for which the “Microtubule-Stabilizing Activity 50 nM” value in data set [1] turned out to be 0.95. Besides, the “Microtubule-Stabilizing Activity 500 nM” value in data set [1] was determined as 1.24. In data set [2] (mouse, 4 h), the Kp at 4 h was 1.32. Besides, the concentration at 4 h stood at 62 ng/mL in data set [2] (setting [3]) and 47 ng/mL in data set [2] (setting [4]). In addition, in data set [2] (mouse, plasma, 0-4 h), the AUC(0-t) was determined as 696 ng·h/mL. Moreover, the Cmax in data set [2] (mouse, plasma, read-out: Cmax) came out at 379 ng/mL. Moreover, in data set [2] (mouse, plasma, read-out: Tmax), the Tmax was 30 min.
